Laboratory results: US4743594A, “Antibiotic, antitumor compounds and their use” (priority 1984, dated 1988)
Converted amounts (≈) assume the structure as drawn.

Experiments:
[1] = system: Sarcina lutea (ATCC 9341); assay: in-vitro antibacterial activity, agar dilution (MIC); format: cell-based; conditions: Micrococcus luteus, ATCC9341, MHA, 48 hrs, pH 7.4, read-out: Minimum Inhibitory Concentration (MIC)
Experimental: (§1) Antibiotics AT 2433 A1, AT 2433 A2, and AT 2433 B1 and AT 2433 B2 were tested in-vitro to determine anti-bacterial activity against a variety of gram-positive and gram-negative organisms
(§2) The in-vitro antibacterial activity tests were performed via conventional agar dilution methods in Muell-Hintom agar (MHA) at pH 7.4.

P-388 leukemia = assay: in-vivo antitumor activity against transplanted mouse P-388 leukemia (NCI test); conditions: for MST (% T/C): >125 = significant antitumor activity; for in-vivo antitumor activity: P-388 leukemia in mice
Experimental: (§3) Anti-tumor activity was determined by the standard National Cancer Institute test which was published in Cancer Chemothr. Rep. 3:1-103, 1972.
(§4) In the test, 10^6 cells (a lethal dose) per mouse of P-388 leukemia are administered interperitoneally on day 0. The test compounds are serially diluted (1:2, 1:4, 1:8, etc.) and each dilution is administered interperitoneally to the mice on days 1, 4 and 7.
(§5) ^1 Tumor inoculum: 10^6 ascites cells, ip
(§6) ^2 Host: CDF1 male mice
(§7) ^3 Treatment schedule: For AT 2433 A1 and B1, ip. days 1, 4
(§8) ^4 Tox: Toxic, i.e., <4/6 mice alive on day 5
(§9) ^5 MST: Median survived time in days
(§10) ^6 % T/C: (MSTTreated/MST-Control) × 100
(§11) ^7 Criteria: If % T/C >125, the test compound is considered to exhibi
(§12) significant antitumor activity at that dose.

[2] = as above; conditions: mouse, in vivo; every 3rd day for 3 injections, ip; read-out: maximum tolerated dose (no day 5 or earlier deaths due to toxicity)
Experimental: as §3, §4, §5, §6, §7, §8, §9, §10, §11, §12

gram-positive bacteria = assay: antibacterial activity against gram-positive bacteria; format: cell-based
Experimental: as §1, §2

E. Coli SS 1431 = assay: in-vitro antibacterial activity, agar dilution (MIC); format: cell-based; conditions: Escherichia coli, MHA, 48 hrs, pH 7.4
Experimental: as §1, §2

gram-negative bacteria = assay: antibacterial activity against gram-negative bacteria; format: cell-based
Experimental: as §1, §2

[3] = 0.5 mg/kg/inj, ip, days 1, 4 and 7
[4] = 0.5 mg/kg/inj, ip, days 1, 4 and 7, CDF1 male mice
[5] = 1 mg/kg/inj, ip, days 1, 4 and 7
[6] = 1 mg/kg/inj, ip, days 1, 4 and 7, CDF1 male mice
[7] = 2 mg/kg/inj, ip, days 1, 4 and 7
[8] = 2 mg/kg/inj, ip, days 1, 4 and 7, CDF1 male mice
[9] = 4 mg/kg/inj, ip, days 1, 4 and 7
[10] = 4 mg/kg/inj, ip, days 1, 4 and 7, CDF1 male mice
[11] = 8 mg/kg/inj, ip, days 1, 4 and 7
[12] = 8 mg/kg/inj, ip, days 1, 4 and 7, CDF1 male mice
[13] = 16 mg/kg/inj, ip, days 1, 4 and 7, CDF1 male mice
[14] = 16 mg/kg/inj, ip, days 1, 4 and 7

CNC1COC(OCC2OC(n3c4c(Cl)cccc4c4c5c(c6c7ccccc7[nH]c6c43)C(=O)N(C)C5=O)C(O)C(O)C2OC)CC1O (stereo not drawn) [AT 2433 A1]
MIC [1]: 0.25 µg/mL (≈ 0.368 µM)
MST (% T/C) (P-388 leukemia; [3]): 150%
MST (median survived time) (P-388 leukemia; [4]): 13.5 days
Avg. wt. change, gm on day 5 (P-388 leukemia; [3]): -0.2 gm
Survivors day 5 (P-388 leukemia; [3]): 6/6
MST (% T/C) (P-388 leukemia; [5]): 150%
MST (median survived time) (P-388 leukemia; [6]): 13.5 days
Avg. wt. change, gm on day 5 (P-388 leukemia; [5]): -0.7 gm
Survivors day 5 (P-388 leukemia; [5]): 6/6
increase in life span over controls (P-388 leukemia; 2 mg/kg given every 3rd day for 3 injections): 72%
MST (% T/C) (P-388 leukemia; [7]): 172%
MST (median survived time) (P-388 leukemia; [8]): 15.5 days
Avg. wt. change, gm on day 5 (P-388 leukemia; [7]): -2.2 gm
Survivors day 5 (P-388 leukemia; [7]): 6/6
MST (% T/C) (P-388 leukemia; [9]): 156%
MST (median survived time) (P-388 leukemia; [10]): 14.0 days
Avg. wt. change, gm on day 5 (P-388 leukemia; [9]): -2.3 gm
Survivors day 5 (P-388 leukemia; [9]): 5/6
MST (% T/C) (P-388 leukemia; [11]): 194%
MST (median survived time) (P-388 leukemia; [12]): 17.5 days
Avg. wt. change, gm on day 5 (P-388 leukemia; [11]): -4.1 gm
Survivors day 5 (P-388 leukemia; [11]): 4/6
MST (% T/C) (toxicity flag) (P-388 leukemia; [13]): Tox (Toxic, i.e., <4/6 mice alive on day 5)
MST (toxicity flag) (P-388 leukemia; [13]): Tox (Toxic, i.e., <4/6 mice alive on day 5)
Avg. wt. change, gm on day 5 (P-388 leukemia; [14]): -3.2 gm
Survivors day 5 (P-388 leukemia; [14]): 2/6
in-vivo antitumor activity (P-388 leukemia): exhibited in-vivo antitumor activity
MTD [2]: 2 mg/kg
antibacterial activity against gram-positive bacteria (gram-positive bacteria): active

COC1C(COC2CC(O)C(N)CO2)OC(n2c3c(Cl)cccc3c3c4c(c5c6ccccc6[nH]c5c32)C(=O)N(C)C4=O)C(O)C1O (stereo not drawn) [AT 2433 A2]
MIC [1]: 1 µg/mL (≈ 1.5 µM)
antibacterial activity against gram-positive bacteria (gram-positive bacteria): active

CNC1COC(OCC2OC(n3c4ccccc4c4c5c(c6c7ccccc7[nH]c6c43)C(=O)N(C)C5=O)C(O)C(O)C2OC)CC1O (stereo not drawn) [AT 2433 B1]
MIC (E. Coli SS 1431): 16 µg/mL (≈ 24.8 µM)
MIC [1]: 0.25 µg/mL (≈ 0.388 µM)
MST (% T/C) (P-388 leukemia; [3]): 111%
MST (median survived time) (P-388 leukemia; [4]): 10.0 days
Avg. wt. change, gm on day 5 (P-388 leukemia; [3]): 3.0 gm
Survivors day 5 (P-388 leukemia; [3]): 5/5
MST (% T/C) (P-388 leukemia; [5]): 117%
MST (median survived time) (P-388 leukemia; [6]): 10.5 days
Avg. wt. change, gm on day 5 (P-388 leukemia; [5]): 3.0 gm
Survivors day 5 (P-388 leukemia; [5]): 5/5
MST (% T/C) (P-388 leukemia; [7]): 122%
MST (median survived time) (P-388 leukemia; [8]): 11.0 days
Avg. wt. change, gm on day 5 (P-388 leukemia; [7]): 0.0 gm
Survivors day 5 (P-388 leukemia; [7]): 6/6
MST (% T/C) (P-388 leukemia; [9]): 133%
MST (median survived time) (P-388 leukemia; [10]): 12.0 days
Avg. wt. change, gm on day 5 (P-388 leukemia; [9]): -0.6 gm
Survivors day 5 (P-388 leukemia; [9]): 6/6
MST (% T/C) (P-388 leukemia; [11]): 133%
MST (median survived time) (P-388 leukemia; [12]): 12.0 days
Avg. wt. change, gm on day 5 (P-388 leukemia; [11]): -0.3 gm
Survivors day 5 (P-388 leukemia; [11]): 6/6
MST (% T/C) (P-388 leukemia; [14]): 144%
MST (median survived time) (P-388 leukemia; [13]): 13.0 days
Avg. wt. change, gm on day 5 (P-388 leukemia; [14]): -0.7 gm
Survivors day 5 (P-388 leukemia; [14]): 6/6
in-vivo antitumor activity (P-388 leukemia): exhibited in-vivo antitumor activity
tumor growth inhibition (P-388 leukemia; highest dose tested, 16 mg/kg): inhibitory to tumor growth but less effective than AT 2433 A1
antibacterial activity against gram-negative bacteria (gram-negative bacteria): exhibit antibacterial activity
antibacterial activity against gram-positive bacteria (gram-positive bacteria): active

COC1C(COC2CC(O)C(N)CO2)OC(n2c3ccccc3c3c4c(c5c6ccccc6[nH]c5c32)C(=O)N(C)C4=O)C(O)C1O (stereo not drawn) [AT 2433 B2]
MIC [1]: 4 µg/mL (≈ 6.34 µM)
antibacterial activity against gram-positive bacteria (gram-positive bacteria): active
